Drawing on ChEMBL document CHEMBL1201862, “PubChem BioAssay data set” (2004), this text covers EC50, IC50 and AC50 for five compounds.

The target of test [1] is Beta-galactosidase (Escherichia coli, UniProt Q8VNN2). Description: PubChem AID 485352. It counts as functional.
Test [2] has as its target T1, Type-1 angiotensin II receptor (Homo sapiens, UniProt P30556).
T1 sequence (P30556 whole entry): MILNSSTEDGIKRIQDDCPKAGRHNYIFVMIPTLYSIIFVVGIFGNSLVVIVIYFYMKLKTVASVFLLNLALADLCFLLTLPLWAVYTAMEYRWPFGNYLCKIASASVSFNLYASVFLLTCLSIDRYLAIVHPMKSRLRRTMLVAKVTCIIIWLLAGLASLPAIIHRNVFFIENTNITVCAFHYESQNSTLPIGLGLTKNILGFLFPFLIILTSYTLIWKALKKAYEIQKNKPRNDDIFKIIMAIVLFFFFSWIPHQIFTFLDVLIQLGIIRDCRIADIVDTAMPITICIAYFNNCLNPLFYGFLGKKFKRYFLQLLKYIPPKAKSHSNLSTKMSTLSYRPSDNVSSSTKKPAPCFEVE
Put plainly: antagonism of angiotensin II type 1 receptor – cell-based, uHTS hits, selectivity assay for APJ receptor antagonist project, dose response (AID 463214).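 Also: antagonist potency against angiotensin II stimulated AT1 response.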 Type of test: functional.

For test [3], the target named is Long-chain-fatty-acid--AMP ligase FadD28 (Mycobacterium tuberculosis, UniProt P9WQ59). Description: Fluorescence polarization aasay to screen for inhibitors that compete for the binding of FadD28 to a bisubstrate Measured in Biochemical System Using Plate Reader - 2147-01_Inhibitor_Dose_CherryPick_Activity. Type of test: functional, Mycobacterium tuberculosis H37Rv. Background: In fluorescence polarisation assays a small probe gives low polarisation when free and higher when bound to something large.

Test [4] deals with T2, Sentrin-specific protease 8 (Homo sapiens, UniProt Q96LD8).
T2 sequence (Q96LD8 whole entry): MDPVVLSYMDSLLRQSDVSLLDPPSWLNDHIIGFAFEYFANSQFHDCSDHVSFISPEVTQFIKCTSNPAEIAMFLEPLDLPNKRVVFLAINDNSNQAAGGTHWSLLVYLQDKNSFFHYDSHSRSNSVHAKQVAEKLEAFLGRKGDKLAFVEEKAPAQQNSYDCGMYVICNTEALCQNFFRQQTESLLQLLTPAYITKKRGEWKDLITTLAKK
Type of test: functional.

In test [5] the target is T2, Sentrin-specific protease 8. It counts as functional. The source holds these as a separate data set.
The target in test [6] is T3, Caspase-3 (Homo sapiens, UniProt P42574).
T3 sequence (P42574 whole entry): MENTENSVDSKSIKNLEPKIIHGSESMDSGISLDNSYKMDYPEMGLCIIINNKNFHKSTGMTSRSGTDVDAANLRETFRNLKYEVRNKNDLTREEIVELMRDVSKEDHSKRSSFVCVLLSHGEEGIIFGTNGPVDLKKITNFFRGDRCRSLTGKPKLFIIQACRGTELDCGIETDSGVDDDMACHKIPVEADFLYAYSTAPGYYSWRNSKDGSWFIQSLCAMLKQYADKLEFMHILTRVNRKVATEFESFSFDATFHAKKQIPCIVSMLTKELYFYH
Description: Dose-response confirmation of uHTS inhibitor hits of Sentrin-Specific Protease 8 in a Caspase-3 Fluorescence assay. Type of test: functional.

For test [7], the target named is T4, Replicative DNA helicase DnaB (Mycobacterium tuberculosis, UniProt P9WMR3).
T4 sequence (P9WMR3 whole entry): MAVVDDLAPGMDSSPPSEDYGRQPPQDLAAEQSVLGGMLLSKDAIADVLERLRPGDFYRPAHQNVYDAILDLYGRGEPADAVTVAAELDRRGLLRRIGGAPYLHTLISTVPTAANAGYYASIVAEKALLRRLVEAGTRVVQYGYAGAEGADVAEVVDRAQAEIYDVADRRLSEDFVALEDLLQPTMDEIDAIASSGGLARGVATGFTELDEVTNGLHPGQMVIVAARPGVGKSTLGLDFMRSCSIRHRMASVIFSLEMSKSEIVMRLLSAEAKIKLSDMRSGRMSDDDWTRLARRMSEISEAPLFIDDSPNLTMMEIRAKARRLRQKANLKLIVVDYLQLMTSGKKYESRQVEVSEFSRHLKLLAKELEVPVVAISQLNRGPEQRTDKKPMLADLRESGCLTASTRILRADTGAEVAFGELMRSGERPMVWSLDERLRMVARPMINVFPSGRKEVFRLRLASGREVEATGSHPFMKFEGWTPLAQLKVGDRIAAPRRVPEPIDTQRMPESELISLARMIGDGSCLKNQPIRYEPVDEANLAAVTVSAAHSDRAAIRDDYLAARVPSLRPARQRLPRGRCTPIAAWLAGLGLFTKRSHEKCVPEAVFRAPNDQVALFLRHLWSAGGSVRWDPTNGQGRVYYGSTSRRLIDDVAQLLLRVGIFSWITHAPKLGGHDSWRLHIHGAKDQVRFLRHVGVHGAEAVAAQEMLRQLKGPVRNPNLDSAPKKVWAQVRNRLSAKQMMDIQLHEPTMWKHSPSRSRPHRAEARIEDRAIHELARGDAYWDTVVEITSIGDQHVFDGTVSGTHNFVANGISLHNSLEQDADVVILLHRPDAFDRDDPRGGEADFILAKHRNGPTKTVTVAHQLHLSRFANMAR
Put plainly: DnaB intein splicing inhibitors, dose response, biochemical, cell-free fluorescence (AID 449749). It counts as functional.

Test [8] deals with T5, Apoptotic protease-activating factor 1 (Homo sapiens, UniProt O14727).
T5 sequence (O14727 whole entry): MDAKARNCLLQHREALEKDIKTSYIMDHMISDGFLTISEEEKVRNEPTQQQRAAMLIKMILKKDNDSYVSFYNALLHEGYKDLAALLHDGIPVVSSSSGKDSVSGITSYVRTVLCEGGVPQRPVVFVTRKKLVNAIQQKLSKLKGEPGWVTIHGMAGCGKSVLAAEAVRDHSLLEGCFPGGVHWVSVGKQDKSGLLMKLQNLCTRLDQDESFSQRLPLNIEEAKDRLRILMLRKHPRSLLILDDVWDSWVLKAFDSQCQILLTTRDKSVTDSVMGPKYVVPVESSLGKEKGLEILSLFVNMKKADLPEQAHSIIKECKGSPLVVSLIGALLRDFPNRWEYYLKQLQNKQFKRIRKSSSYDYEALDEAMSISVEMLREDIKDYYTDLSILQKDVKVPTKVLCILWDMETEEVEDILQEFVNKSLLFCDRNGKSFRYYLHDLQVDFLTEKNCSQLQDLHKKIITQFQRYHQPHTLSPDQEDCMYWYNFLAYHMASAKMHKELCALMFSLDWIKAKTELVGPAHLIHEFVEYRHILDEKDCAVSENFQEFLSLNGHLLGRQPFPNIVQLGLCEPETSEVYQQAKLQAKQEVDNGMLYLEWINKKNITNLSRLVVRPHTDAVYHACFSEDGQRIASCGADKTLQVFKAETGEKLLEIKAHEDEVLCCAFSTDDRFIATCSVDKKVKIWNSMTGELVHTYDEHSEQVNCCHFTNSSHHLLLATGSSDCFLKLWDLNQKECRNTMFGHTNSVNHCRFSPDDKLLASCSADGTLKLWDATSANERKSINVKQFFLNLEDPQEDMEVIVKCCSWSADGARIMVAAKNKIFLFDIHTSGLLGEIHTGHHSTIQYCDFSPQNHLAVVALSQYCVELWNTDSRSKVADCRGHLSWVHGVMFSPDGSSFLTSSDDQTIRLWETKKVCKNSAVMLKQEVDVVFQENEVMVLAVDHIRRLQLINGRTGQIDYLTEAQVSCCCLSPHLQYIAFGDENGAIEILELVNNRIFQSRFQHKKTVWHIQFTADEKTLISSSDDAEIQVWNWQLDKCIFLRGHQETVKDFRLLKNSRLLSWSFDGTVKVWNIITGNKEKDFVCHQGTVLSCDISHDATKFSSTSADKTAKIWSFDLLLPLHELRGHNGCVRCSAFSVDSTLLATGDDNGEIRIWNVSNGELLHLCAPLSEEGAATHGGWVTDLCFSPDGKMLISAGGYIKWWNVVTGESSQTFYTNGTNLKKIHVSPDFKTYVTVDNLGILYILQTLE
It counts as functional.

Test [9] deals with T6, Protein RecA (Mycobacterium tuberculosis, UniProt P9WHJ3).
T6 sequence (P9WHJ3 whole entry): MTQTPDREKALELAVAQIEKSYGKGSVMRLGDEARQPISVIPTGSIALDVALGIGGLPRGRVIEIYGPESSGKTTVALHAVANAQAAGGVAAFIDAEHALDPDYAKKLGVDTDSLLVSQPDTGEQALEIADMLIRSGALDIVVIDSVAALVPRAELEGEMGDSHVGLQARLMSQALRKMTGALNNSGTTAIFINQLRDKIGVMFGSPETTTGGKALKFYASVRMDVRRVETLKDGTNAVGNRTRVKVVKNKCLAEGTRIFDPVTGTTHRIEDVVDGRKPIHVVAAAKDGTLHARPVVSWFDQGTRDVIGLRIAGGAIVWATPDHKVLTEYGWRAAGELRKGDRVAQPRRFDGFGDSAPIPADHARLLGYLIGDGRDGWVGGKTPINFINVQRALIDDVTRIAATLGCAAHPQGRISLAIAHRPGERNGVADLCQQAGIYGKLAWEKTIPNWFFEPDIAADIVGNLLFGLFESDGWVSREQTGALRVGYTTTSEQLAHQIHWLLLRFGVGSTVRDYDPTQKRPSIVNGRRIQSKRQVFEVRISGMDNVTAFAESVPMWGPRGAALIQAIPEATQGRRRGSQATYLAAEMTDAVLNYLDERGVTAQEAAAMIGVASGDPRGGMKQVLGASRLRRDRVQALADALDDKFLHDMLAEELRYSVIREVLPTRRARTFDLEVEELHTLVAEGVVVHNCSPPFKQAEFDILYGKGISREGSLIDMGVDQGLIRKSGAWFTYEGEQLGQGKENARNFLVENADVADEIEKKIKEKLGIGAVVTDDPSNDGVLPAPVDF
Description: Fluorescence Cell-Free Homogeneous Dose Retest to Identify Inhibitors of RecA-Intein Splicing Activity. [Related pubchem assays (depositor defined):AID2097, AID2223, AID489010, AID492950]. It counts as functional.

In test [10] the target is Arf-GAP with SH3 domain, ANK repeat and PH domain-containing protein 1 (Homo sapiens, UniProt Q9ULH1). Type of test: functional.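 Also: biochemical fluorescence polarization dose–response screen measuring inhibition of ASAP1; ASAP1 GAP domain stimulating GTP hydrolysis by truncated human ARF1.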
Test [11] concerns the target T7, Tyrosyl-DNA phosphodiesterase 2 (Homo sapiens, UniProt O95551).
T7 sequence (O95551 whole entry): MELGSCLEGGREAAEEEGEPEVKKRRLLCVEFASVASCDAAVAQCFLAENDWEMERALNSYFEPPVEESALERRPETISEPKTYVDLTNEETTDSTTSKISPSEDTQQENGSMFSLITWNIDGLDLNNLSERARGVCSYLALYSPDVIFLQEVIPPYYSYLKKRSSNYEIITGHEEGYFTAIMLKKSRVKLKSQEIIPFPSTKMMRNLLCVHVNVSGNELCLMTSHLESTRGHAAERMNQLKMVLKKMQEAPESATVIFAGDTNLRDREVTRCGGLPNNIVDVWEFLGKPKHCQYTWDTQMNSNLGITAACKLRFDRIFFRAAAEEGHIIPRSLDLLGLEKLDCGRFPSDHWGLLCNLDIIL
Description: potency against TDP2 phosphodiesterase activity – biochemical, epi absorbance, IC50, dose response (AID 743297).

The target in test [12] is T8, Methionyl-tRNA synthetase, putative (Trypanosoma brucei brucei, UniProt Q38C91). It counts as functional, Trypanosoma brucei brucei strain 927/4 GUTat10.1.
The nature of test [13]: Counterscreen for inhibitors of Trypanosoma brucei methionyl tRNA synthetase (MetRS): Luminescence-based cell-based high throughput dose response assay to identify compounds that are cytotoxic to Jurkat human T lymphocyte cells. Type of test: functional. On the technique in general: The purpose of a counterscreen is to sort out artefacts and off-target activity.
The target of test [14] is T8, Methionyl-tRNA synthetase, putative. It counts as functional, Trypanosoma brucei brucei strain 927/4 GUTat10.1. The source holds these as a separate data set.
Test [15] in a line: mouse fibroblast viability loss – cell-based, cherry-pick samples, set 2, cytotoxicity control for T. cruzi growth inhibitor project, dose response (AID 651817). It counts as functional. To be noted: NIH3T3.

Calls of active or inactive are those of the source.

T8 sequence (Q38C91 whole entry): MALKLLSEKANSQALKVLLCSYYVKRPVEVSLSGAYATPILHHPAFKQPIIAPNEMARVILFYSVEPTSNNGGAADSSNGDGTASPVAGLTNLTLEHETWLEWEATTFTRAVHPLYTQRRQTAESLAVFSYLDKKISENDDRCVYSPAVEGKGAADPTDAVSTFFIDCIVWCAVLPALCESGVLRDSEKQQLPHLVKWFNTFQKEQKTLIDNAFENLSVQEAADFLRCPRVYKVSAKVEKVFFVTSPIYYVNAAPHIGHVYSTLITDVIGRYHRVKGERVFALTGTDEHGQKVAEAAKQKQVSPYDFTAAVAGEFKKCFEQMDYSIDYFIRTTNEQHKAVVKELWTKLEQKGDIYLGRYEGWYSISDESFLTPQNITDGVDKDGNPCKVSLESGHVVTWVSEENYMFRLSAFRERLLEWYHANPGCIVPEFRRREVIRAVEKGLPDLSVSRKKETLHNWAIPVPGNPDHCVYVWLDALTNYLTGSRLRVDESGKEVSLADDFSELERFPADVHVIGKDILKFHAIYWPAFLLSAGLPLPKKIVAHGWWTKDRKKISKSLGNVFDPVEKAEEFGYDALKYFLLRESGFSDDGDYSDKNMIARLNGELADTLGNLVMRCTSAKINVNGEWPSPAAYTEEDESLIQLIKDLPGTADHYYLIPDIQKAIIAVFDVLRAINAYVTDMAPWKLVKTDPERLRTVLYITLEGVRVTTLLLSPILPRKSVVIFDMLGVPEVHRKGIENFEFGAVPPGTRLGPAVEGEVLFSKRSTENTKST
Arf-GAP with SH3 domain, ANK repeat and PH domain-containing protein 1, sequence (Q9ULH1 whole entry, the tested form may be a part): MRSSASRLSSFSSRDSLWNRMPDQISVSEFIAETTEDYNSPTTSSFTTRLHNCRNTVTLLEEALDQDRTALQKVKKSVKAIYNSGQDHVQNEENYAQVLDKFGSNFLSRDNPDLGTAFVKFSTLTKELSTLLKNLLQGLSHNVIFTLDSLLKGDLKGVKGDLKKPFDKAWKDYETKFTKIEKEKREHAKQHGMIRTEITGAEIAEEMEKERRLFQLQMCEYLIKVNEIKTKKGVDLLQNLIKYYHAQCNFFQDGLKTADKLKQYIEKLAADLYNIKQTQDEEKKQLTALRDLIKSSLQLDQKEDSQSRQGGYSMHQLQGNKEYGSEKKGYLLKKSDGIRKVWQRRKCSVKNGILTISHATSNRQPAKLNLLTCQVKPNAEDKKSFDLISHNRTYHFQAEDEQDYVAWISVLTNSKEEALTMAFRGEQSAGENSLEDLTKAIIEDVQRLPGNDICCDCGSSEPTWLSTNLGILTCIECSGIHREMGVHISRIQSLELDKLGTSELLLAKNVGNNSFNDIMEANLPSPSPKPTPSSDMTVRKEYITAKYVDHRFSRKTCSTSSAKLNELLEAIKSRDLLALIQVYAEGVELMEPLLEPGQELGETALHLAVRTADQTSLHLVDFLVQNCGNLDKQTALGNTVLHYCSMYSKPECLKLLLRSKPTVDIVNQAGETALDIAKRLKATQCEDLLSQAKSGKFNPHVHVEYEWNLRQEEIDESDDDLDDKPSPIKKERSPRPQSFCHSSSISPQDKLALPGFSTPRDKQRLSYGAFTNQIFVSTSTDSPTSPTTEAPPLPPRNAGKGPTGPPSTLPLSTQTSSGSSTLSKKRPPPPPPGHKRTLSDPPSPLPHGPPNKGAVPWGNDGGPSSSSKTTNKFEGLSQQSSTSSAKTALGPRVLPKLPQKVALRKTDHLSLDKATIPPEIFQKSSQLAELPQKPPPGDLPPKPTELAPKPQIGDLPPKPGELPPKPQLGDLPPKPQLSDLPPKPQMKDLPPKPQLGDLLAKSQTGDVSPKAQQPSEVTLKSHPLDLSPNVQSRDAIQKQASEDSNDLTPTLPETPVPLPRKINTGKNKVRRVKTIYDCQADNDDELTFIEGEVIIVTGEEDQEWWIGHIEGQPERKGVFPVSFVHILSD
Beta-galactosidase, sequence (Q8VNN2 whole entry): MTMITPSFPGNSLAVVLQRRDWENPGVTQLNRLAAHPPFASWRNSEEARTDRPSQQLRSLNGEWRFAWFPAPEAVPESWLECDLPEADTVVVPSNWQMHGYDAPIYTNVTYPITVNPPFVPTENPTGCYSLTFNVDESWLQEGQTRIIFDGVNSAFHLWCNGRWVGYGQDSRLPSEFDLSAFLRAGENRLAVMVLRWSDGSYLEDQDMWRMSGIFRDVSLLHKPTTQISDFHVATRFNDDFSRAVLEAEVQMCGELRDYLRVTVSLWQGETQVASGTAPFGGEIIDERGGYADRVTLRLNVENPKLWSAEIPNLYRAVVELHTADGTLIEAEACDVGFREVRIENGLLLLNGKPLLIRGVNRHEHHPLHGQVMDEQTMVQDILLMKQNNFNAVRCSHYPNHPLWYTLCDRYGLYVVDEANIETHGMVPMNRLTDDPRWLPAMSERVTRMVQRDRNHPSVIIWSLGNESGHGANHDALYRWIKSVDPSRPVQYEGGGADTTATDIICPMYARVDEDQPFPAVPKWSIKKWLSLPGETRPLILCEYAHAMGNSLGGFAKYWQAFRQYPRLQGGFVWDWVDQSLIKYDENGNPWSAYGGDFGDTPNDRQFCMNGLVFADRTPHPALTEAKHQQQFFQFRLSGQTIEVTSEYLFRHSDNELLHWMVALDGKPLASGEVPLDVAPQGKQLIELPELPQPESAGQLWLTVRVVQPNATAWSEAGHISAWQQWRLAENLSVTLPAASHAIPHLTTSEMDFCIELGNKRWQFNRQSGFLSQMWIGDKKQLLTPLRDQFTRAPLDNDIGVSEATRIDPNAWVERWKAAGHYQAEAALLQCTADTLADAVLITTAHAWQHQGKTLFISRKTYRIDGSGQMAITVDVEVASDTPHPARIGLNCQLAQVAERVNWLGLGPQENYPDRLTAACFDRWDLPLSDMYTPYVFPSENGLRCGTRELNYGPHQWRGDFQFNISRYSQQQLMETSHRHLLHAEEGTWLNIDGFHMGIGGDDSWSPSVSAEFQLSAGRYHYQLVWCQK
Long-chain-fatty-acid--AMP ligase FadD28, sequence (P9WQ59 whole entry): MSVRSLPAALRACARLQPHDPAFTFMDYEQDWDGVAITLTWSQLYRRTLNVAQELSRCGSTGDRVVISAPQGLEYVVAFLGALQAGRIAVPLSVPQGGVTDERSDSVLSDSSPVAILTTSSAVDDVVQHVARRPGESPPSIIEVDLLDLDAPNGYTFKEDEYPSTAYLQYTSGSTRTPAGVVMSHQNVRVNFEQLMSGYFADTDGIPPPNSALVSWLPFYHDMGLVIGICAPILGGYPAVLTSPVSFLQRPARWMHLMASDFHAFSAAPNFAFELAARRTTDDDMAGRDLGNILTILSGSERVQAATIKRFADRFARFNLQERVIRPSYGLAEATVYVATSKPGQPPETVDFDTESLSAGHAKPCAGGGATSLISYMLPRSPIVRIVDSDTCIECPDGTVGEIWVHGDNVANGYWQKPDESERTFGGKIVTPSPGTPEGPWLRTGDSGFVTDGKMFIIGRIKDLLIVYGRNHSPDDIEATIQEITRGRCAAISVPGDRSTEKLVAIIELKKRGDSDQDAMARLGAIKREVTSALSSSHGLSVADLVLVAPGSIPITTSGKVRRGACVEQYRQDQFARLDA

The EC50 is the concentration at which the effect is half-maximal. For orientation: IC50 means the point on the concentration scale where inhibition reaches its midpoint. What is called AC50 is the concentration at which the activity in the assay is half-maximal. As to `Cc1ccc(NC(=S)NNC(=O)c2ccc(N3CCOCC3)c([N+](=O)[O-])c2)cc1Cl`, in test [1], the EC50 is > 40 µM (inactive). In addition, in test [2], the IC50 is > 40 µM (not active). Moreover, the AC50 in [3] is 30.9 µM (active).
For `Cc1ccc(S(=O)(=O)N2CCOCC2)cc1C(=O)OCC(=O)N1CCc2ccccc2C1`, the IC50 in test [4] was 62.2 µM (inactive); in test [5], 24.4 µM (active); in [6], 92.7 µM (inactive).
In the case of `CC(=O)c1cccc(-c2ccc3c(=O)[nH]c(Nc4ccccc4)cc3c2)c1`, the AC50 in [7] is > 380 µM (inactive). Moreover, the IC50 was 3.02 µM (active) in test [8], 165 µM (inactive) in [10] and 25.9 µM (inactive) in [11]. For the same compound, in test [9], the half-maximal effective concentration (EC50) is 2.14 µM (active).
With `CSC[C@H]1CN(Cc2cccnc2)C(=O)[C@@H]1CC(=O)Nc1ccc(Br)cc1`, the IC50 in [12] was 7.58 µM (active); in test [13], 83.3 µM (inactive); in [14] it was 3.02 µM (active).
In the case of `Cc1ccc(S(=O)(=O)N(C)C[C@@H]2Oc3c(NC(=O)c4nc5ccccc5s4)cccc3C(=O)N([C@@H](C)CO)C[C@@H]2C)cc1`, the AC50 in test [15] was 39 µM (inactive).
